Experimental data as given in paper doi:10.1101/2021.04.29.441652v1 (biorxiv, 2021).
pKi: −log10 of the molar value.

Experiments:
[1] = target: T1, human σ2 receptor (TMEM97) (Homo sapiens, UniProt Q5BJF2); assay: [3H]-DTG competition binding, Expi293 membranes
[2] = target: T1, human σ2 receptor (TMEM97); assay: [3H]-DTG competition binding, Expi293 membranes; remark: listed apart in the source
[3] = target: T1, human σ2 receptor (TMEM97); assay: biochemical; type: Expi293 membranes
[4] = target: T1, human σ2 receptor (TMEM97); assay: biochemical; type: Expi293 membranes; settings: read-out: % of control remaining
[5] = 10 nM [3H]-DTG, 50 mM Tris pH 8.0, 37 °C, 90 min

T1 sequence (Q5BJF2 whole entry): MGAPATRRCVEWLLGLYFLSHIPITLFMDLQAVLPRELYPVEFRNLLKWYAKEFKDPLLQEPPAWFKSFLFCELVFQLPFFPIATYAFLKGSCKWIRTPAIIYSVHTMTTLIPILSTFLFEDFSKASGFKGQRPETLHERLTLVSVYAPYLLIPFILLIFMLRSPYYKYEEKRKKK

pKi [3] | remaining activity at 1 µM [4] | Compound | also measured
 |  | c1ccc(CCCN2CCC(c3nnc4ccccn34)CC2)cc1 [Z163048780] | pKi [1]: < 5.00
 |  | C1=C(c2c[nH]c3ccccc23)CCN(CCCc2ccccc2)C1 [Z295861754] | pKi [2]: 7.24
 |  | C1=C(c2c[nH]c3ncccc23)CCN(CCCc2ccccc2)C1 [Z1241145220] | pKi [1, 5]: 8.43
 |  | OC(CCc1ccccc1)CN1CC=C(c2c[nH]c3ncccc23)CC1 (stereo not drawn) [Z1665845742] | pKi [1, 5]: 8.30
7.71 | 6.9% | c1ccc(CSc2cncc(N3CCC[C@H](N4CCCC4)CC3)n2)cc1 [ZINC000301801549] | 
7.47 | 5.2% | Cc1ccc([C@H]2CCN(CC3(O)CCC3)C2)c(C)c1 [ZINC000348332392] | 
8.05 | 9.7% | CC(C)(C)[C@@H]1CCN(C[C@@H](O)COCc2ccccc2F)C1 [ZINC000409447221] | 
8.38 | 11.9% | CCOC(=O)[C@@H](CC)N1CCN(C2CCC(C(C)C)CC2)CC1 (stereo partly drawn) [ZINC000440321606] | 
8.37 | 3.6% | C[C@@H](c1ccccc1)[C@@H](O)CN1CCC(c2c[nH]c3ncccc23)CC1 [ZINC000450573233] | 
7.89 | 9.8% | CN(C[C@]1(O)CCN(Cc2ccccc2)C1)C(=O)c1ccc(F)c2ccccc12 [ZINC000480785335] | 
7.67 | 11.7% | Cc1cc(C)c2cc(CN3CCC[C@H](N4CCCC4)CC3)[nH]c2c1 [ZINC000481989921] | 
8.00 | 0% | Cc1ccc(CCC2CCN(C(=O)CN3C[C@@H]4CC[C@@H](O)[C@H]4C3)CC2)cc1 [ZINC000544117725] | 
8.62 | 0.4% | CC1CCC(O)(CN2CC(Cc3ccc(F)c(F)c3)C2)CC1 (stereo not drawn) [ZINC000548355486] | 
7.98 | 11.9% | Cc1cccc(C)c1OC[C@H](O)CN1CC[C@@H](CC2CC2)C1 [ZINC000559413424] | 
7.86 | 11.5% | O[C@@H](COCc1ccccc1Cl)CN1CC[C@H](Cc2ccc(F)cc2)C1 [ZINC000605902355] | 
7.17 | 9.3% | Cc1ccc(CC2CN(CC3(O)CCSCC3)C2)cc1 [ZINC000656714762] | 

pKi [3] | remaining activity at 1 µM [4] | Compound | also measured
8.76 | 6.4% | C1CCC([C@@H]2CCN(CCC3CCOCC3)C2)CC1 [ZINC000661577595] | 
7.83 | 11.6% | c1ccc(N2CCC(NC[C@@H]3C[C@H]4CCC[C@@H]4O3)CC2)cc1 [ZINC000872109019] | 
8.12 | 11.8% | CC(C)(C)[C@@H]1CCN(C[C@@H](O)CC2(O)CCCCC2)C1 [ZINC000878406056] | 
7.17 | 12.5% | O[C@@]1(CNCc2cccc3c2OCC3)CCc2ccccc21 [ZINC000921927365] | 
7.69 | 12.7% | CC1CC(CN2CC(N3CCN(C(=O)[C@H](C)C4CCCC4)CC3)C2)C1 (stereo partly drawn) [ZINC000941634458] | 
7.74 | 12.9% | CCc1nnsc1C(=O)N[C@H]1[C@@H]2CN(CC3CCCCCC3)C[C@@H]21 [ZINC000960887654] | 
7.65 | 8.4% | Fc1ccccc1[C@H]1CCN(CC#Cc2cccc(Cl)c2)C1 [ZINC001170548029] | 
8.62 | 1.2% | CC(C)CCO[C@@H]1CCN(C[C@H]2CC3(CCCCC3)CO2)C1 [ZINC001196519317] | 
7.57 | 4.5% | Fc1c(CN2CCN(C[C@@H]3CCCO3)CC2)ccc(Br)c1Cl [ZINC001237901728] | 
8.33 | 1.1% | O[C@@H](COCc1ccccc1F)CN1CC(Cc2ccccc2C(F)(F)F)C1 [ZINC001254761628] | 
7.87 | 9.7% | C[C@H](C(=O)NC[C@]1(O)CCN(CCC2CCCC2)C1)c1ccccc1 [ZINC001376084945] | 
8.28 | 8% | CC[C@@H](CO)N1CCC(CCc2ccc(F)cc2F)CC1 [ZINC001460312963] | 
8.10 | 10.9% | O[C@@H](CN1CC[C@@H](C2CCCCC2)C1)CC1(O)CCCCC1 [ZINC001460371878] | 
 |  | ZINC450573233 | pKi [2, 5]: 8.37
 |  | ZINC895657866 | pKi [2, 5]: 7.67

Compound | pKi [3] | remaining activity at 1 µM [4] | also measured
C[C@@H](C(=O)N(C)Cc1cccc(F)c1)N1CC=C(c2c[nH]c3ncccc23)CC1 [ZINC000533478938] | 7.46 | 2.7% | 
CC(C)(NCc1ccc2c(c1)OCCO2)[C@H](O)c1ccccc1 [ZINC000895657866] | 7.67 | 3% | 
